Assay [1] deals with K562. The experiment in a line: Antiproliferative activity against human K562 cells at 1 uM in presence of guanosine. The assay is classed as functional, cell-based.
Assay [2] relates to K562. The experiment in a line: Antiproliferative activity against human K562 cells at 1 uM. It is filed as functional, cell-based.
The test system of assay [3] is K562. The experiment in a line: Induction of human K562 cell differentiation at 1 uM after 72 hrs by trypan blue exclusion assay in presence of guanosine. It is filed as functional, cell-based.
Assay [4] concerns the target Histone deacetylase (Homo sapiens) (UniProt Q13547+O15379+Q9UBN7+Q92769+Q9UQL6+Q8WUI4+Q9BY41+Q96DB2+P56524+Q9UKV0+Q969S8). As to the kind of experiment: Inhibition of HDAC in human K562 cells using Boc-Lys[Ac]-AMC as substrate at 10 uM incubated for 10 mins prior to substrate addition measured after 80 mins by fluorescence assay. It is filed as cell-based.
Assay [5] deals with K562. The experiment in a line: Cytotoxicity against human K562 cells. It is filed as functional, cell-based.
Assay [6] has as its target Inosine-5'-monophosphate dehydrogenase 2 (Homo sapiens, UniProt P12268). The experiment in a line: Inhibition of human IMPDH2.
The target of assay [7] is Inosine-5'-monophosphate dehydrogenase 1 (Homo sapiens, UniProt P20839). The experiment in a line: Inhibition of human IMPDH1.
Inosine-5'-monophosphate dehydrogenase 1, sequence (P20839 whole entry): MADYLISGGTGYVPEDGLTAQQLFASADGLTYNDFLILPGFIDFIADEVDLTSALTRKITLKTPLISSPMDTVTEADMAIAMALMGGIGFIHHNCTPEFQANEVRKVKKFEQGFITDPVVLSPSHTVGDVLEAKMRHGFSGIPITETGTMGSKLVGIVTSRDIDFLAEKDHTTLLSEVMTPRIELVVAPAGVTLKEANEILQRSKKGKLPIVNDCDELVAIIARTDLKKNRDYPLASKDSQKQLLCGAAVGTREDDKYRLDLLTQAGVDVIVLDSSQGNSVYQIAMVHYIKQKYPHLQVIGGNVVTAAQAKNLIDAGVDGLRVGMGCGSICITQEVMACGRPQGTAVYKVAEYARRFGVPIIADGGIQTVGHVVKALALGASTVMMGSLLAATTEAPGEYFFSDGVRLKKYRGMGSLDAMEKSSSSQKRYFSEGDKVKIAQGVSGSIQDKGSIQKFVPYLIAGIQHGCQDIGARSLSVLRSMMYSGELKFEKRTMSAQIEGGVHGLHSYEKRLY
The test system of assay [8] is K562. The experiment in a line: Antiproliferative activity against human K562 cells at 1 mM in presence of guanosine. The assay is classed as functional, cell-based.
Assay [9] relates to K562. The experiment in a line: Induction of human K562 cell differentiation at 2.5 uM after 72 hrs by trypan blue exclusion assay in presence of guanosine. It is filed as functional, cell-based.
Assay [10] concerns K562. As to the kind of experiment: Antiproliferative activity against human K562 cells at 2.5 uM. It is filed as functional, cell-based.
In assay [11] the test system is K562. The experiment in a line: Antiproliferative activity against human K562 cells at 2.5 uM in presence of guanosine. The assay is classed as functional, cell-based.
The species entered for assay [12] is Homo sapiens. As to the kind of experiment: Selectivity index, ratio of IC50 for human IMPDH1 to IC50 for human IMPDH2.
Assay [13] has as its system K562. The experiment in a line: Induction of human K562 cell differentiation at 1 to 30 uM after 72 hrs by trypan blue exclusion assay in presence of guanosine. It is filed as functional, cell-based.
Assay [14] concerns K562. The experiment in a line: Induction of human K562 cell differentiation at 30 uM after 72 hrs by trypan blue exclusion assay. The assay is classed as functional, cell-based.
The subject of assay [15] is K562. As to the kind of experiment: Induction of human K562 cell differentiation at 5 uM after 72 hrs by trypan blue exclusion assay in presence of guanosine. It is filed as functional, cell-based.
Assay [16] concerns K562. As to the kind of experiment: Antiproliferative activity against human K562 cells at 5 uM in presence of guanosine. It is filed as functional, cell-based.
The subject of assay [17] is K562. As to the kind of experiment: Antiproliferative activity against human K562 cells at 5 uM. It is filed as functional, cell-based.

“And” between values parts separate entries of the source, which are not always exact repeats. Equal entries are not always repeated. The source made the active and inactive calls. The rule behind the calls is not given here.

The values below come from ChEMBL document CHEMBL2417359, “Discovery of N-(2,3,5-triazoyl)mycophenolic amide and mycophenolic epoxyketone as novel inhibitors of human IMPDH” (Bioorg Med Chem Lett, 2013).

A word on the inhibition: it is the relative decrease from the control value, in per cent. With `COc1c(C)c2c(c(O)c1C/C=C(\C)CCC(=O)O)C(=O)OC2`, the outcome in [1] and in assay [3] was inactive. Moreover, the outcome in assay [2] was Active. Also, the inhibition in assay [4] was found to be 3%.
For orientation: IC50 means the concentration at which inhibition is half-maximal. Low values mean higher potency, high ones lower potency. `COc1c(C)c2c(c(O)c1C/C=C(\C)CCC(=O)Nc1nnn[nH]1)C(=O)OC2` displayed an IC50 in assay [5] of 34000 nM.
Turning to `COc1c(C)c2c(c(O)c1C/C=C(\C)CCC(=O)Nc1nncs1)C(=O)OC2`, in assay [5], the IC50 came out at 27000 nM.
On to `COc1c(C)c2c(c(O)c1C/C=C(\C)CCC(=O)Nc1ccccn1)C(=O)OC2`, for which the IC50 in assay [5] is 26000 nM.
Take `COc1c(C)c2c(c(O)c1C/C=C(\C)CCC(=O)[C@@H]1CO1)C(=O)OC2` [listing 1 of 3 here]: the IC50 in [6] is 330 nM; in assay [7], 558 nM; in assay [5], 2900 nM.
On to `CCCC(=O)[O-].[Na+]`, for which the outcome in [8] was Active.
Consider `COc1c(C)c2c(c(O)c1C/C=C(\C)CCC(=O)Nn1cnnc1)C(=O)OC2`, for which the IC50 in assay [5] is 31000 nM.
`COc1c(C)c2c(c(O)c1C/C=C(\C)CCC(=O)[C@@H]1CO1)C(=O)OC2` [listing 2 of 3 here]: the figures for the IC50 in assay [6], in assay [7] and in [5] were 387 nM, 680 nM and 2300 nM, respectively.
As for `COc1c(C)c2c(c(O)c1C/C=C(\C)CCC(=O)NO)C(=O)OC2`, the result in assay [9] and in [11] was inactive. Also, the result in [10] was Active. Also, the inhibition in assay [4] turned out to be 76%.
`COc1c(C)c2c(c(O)c1C/C=C(\C)CCCSC(C)=O)C(=O)OC2` registered an IC50 in assay [5] of 26000 nM.
As to `COc1c(C)c2c(c(O)c1C/C=C(\C)CCC(=O)Nc1ncn[nH]1)C(=O)OC2`, the result in assay [1] and in [13] was inactive. The outcome in assay [2] and in [14] was Active. Besides, the IC50 in assay [6] was determined as 98 nM; in assay [7], 105 nM; in assay [5] it was 480 nM. In [12], the Ratio IC50 came to 1.1.
As to `COc1c(C)c2c(c(O)c1C/C=C(\C)CCC(=O)[C@@H]1CO1)C(=O)OC2` [listing 3 of 3 here], the outcome in assay [15] and in assay [16] was inactive. Besides, the Ratio IC50 in assay [12] is 1.8 and 1.7. Further, the result in [17] was Active. For the same compound, in assay [4], the inhibition was 15% and 19%.
`COc1c(C)c2c(c(O)c1C/C=C(\C)CCC(=O)Nc1nccs1)C(=O)OC2` showed an IC50 in assay [5] of 22000 nM.
The same measure, in the same setting: for `COc1c(C)c2c(c(O)c1C/C=C(\C)CCCS)C(=O)OC2` the value was 74000 nM.
